Data set [1] concerns FAP. Also on record: method as in PMID 29626119. Particulars: read-out: EC50 through competition assays; cited from earlier work.
Data set [2] has as its target T1, FAP (Mus musculus, UniProt P97321).
T1 construct: Increased FAP expression with increasing disease severity in CIA mice as assessed with IHC; from tissue; host or cells: inflamed paws of live DBA/1J mice with collagen-induced arthritis
T1 sequence (P97321 1-761): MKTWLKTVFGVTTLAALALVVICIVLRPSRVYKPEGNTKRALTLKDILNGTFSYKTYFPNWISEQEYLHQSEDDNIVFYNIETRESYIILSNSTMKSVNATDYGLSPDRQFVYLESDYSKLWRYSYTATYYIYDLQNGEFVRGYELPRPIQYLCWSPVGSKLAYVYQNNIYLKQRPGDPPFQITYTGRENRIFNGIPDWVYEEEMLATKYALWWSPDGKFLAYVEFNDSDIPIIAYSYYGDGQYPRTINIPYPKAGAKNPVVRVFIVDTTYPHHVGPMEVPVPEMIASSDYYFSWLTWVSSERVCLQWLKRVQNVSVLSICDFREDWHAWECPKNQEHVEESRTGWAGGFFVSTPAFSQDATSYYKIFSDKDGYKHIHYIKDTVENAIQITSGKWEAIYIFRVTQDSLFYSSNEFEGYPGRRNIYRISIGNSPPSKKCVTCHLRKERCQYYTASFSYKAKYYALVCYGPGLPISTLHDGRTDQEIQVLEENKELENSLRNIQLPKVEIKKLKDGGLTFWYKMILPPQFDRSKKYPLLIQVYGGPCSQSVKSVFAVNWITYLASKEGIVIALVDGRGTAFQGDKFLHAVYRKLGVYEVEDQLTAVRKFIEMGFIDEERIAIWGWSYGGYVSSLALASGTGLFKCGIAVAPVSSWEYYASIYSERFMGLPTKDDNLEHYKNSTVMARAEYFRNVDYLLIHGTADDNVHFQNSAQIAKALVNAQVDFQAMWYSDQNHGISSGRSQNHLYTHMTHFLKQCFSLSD
The experiment in a line: In vivo near-infrared imaging of paws with competitive blocking, CIA model.

A short description of data set [3]: Plasma pharmacokinetics after IV bolus, non-compartmental analysis. Format: in vivo, mouse. Particulars: for AUC(0-inf) / C0 / clearance / half-life / Vd: mouse, plasma, healthy male DBA1/J mice, Mean ± SEM; for AUC(0-inf) / C0: IV bolus 2 nmol (FAPI dosed 51 nmol, dose normalized to 2 nmol); for clearance / half-life / Vd: IV bolus; for half-life: read-out: Terminal t1/2 (converted); for Vd: read-out: VD,ss; for clearance category (Fig. 1): words in Fig. 1. The method, then:
FAPI was dosed IV (51 nmol) via the tail vein to maintain concentrations above LLOQ for PK analysis while all other FAPI conjugates were dosed IV (1 or 2 nmol in 150 µL PBS) via the tail vein. […] Whole blood was diluted with 10 mM EDTA in PBS and spun down to isolate plasma. Fluorescent ligand concentrations were quantified using a LI-COR Odyssey CLx scanner (Lincoln, NE) using a dilution series of fluorescent standards as previously reported. Non-compartmental analysis was conducted using the concentration vs. time profiles for each probe with MATLAB. The predicted initial concentration, terminal phase half-life, exposure (AUC0-inf), AUC extrapolation percentage, volume of distribution at steady state, and terminal clearance were reported for each dosed probe.

The target of data set [4] is T2, cell surface FAP (HEK293-hFAP cells) (Homo sapiens, UniProt Q12884).
T2 construct: expressed in transfected cells; host or cells: HEK293 (ATCC, CRL-1573), Lipofectamine 3000 transfection, puromycin selection
T2 sequence (Q12884 1-760): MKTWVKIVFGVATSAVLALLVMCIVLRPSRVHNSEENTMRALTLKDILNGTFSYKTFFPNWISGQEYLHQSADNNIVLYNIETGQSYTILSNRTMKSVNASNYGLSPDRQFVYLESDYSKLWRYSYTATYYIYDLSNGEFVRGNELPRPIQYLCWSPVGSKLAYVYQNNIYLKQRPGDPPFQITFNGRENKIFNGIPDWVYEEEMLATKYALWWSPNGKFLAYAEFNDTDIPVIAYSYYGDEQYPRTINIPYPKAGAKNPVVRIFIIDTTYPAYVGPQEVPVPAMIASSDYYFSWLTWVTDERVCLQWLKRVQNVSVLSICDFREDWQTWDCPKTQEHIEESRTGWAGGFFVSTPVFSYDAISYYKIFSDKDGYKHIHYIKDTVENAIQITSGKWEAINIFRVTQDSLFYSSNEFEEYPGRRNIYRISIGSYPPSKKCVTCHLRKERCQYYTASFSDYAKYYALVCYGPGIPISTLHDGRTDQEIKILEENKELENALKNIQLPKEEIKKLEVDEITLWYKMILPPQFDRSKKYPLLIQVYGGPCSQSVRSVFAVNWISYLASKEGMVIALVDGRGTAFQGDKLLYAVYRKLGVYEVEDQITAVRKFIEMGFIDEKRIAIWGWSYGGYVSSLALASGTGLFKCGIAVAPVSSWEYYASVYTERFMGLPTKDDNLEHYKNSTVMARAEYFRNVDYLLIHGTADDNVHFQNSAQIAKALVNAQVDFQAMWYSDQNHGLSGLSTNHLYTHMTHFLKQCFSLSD
Kind of data set: Competition assay against FAPI-ALB-AF647 for indirect KD. Format: binding. The note with it: competition with FAPI-ALB-AF647, 60 nM each, 30 min on ice, read-out: KD (nM), indirectly calculated. The method, then: Both the FAPI-ALB-AF647 and the unlabeled competitor were incubated at 60 nM each on HEK293-hFAP cells for 30 min on ice to approach steady-state binding. The competition assay cells were pelleted and washed twice with PBS w/ 0.1% BSA before being analyzed using a BD Fortessa flow cytometer. The loss in signal from the competition incubation was then compared to the signal of the FAPI-ALB-AF647 incubation alone to determine the relative binding affinity.

A short description of data set [5]: Plasma protein binding by equilibrium dialysis. Format: in vitro ADME. The note with it: CD1 mouse plasma, 1 µM, equilibrium dialysis 4 h at 37 °C. The method, then:
CD1 mouse plasma protein binding was assessed via equilibrium dialysis. Dry membranes (HT Dialysis, HTD96b) were soaked in DI water for 15 min and then in 30% ethanol for another 15 min. After washing the membranes 3 times with DI water, the membranes were placed in dialysis buffer (potassium phosphate, 50 mM, pH 7.4) until the assay began. At the beginning of the assay, the membranes were placed in the dialysis block and 100 µL of buffer was added to both sides of the membrane to maintain membrane hydration/integrity. Each compound was diluted to 1 µM using plasma and then 100 µL of this mixture was added to one side of the membrane while 100 µl of […] was placed in opposite well. The plate was then sealed and placed on an orbital shaker (150 rpm) in an incubator at 37 °C for 4 h. Afterwards, samples were taken from the donor and acceptor side of the well, vortexed, centrifuged at 3300 rpm for 15 min at 4 °C and then analyzed for compound content using LC/MS.

The test system of the next data set is HEK293-hFAP cells. Kind of data set: Receptor net internalization assay, flow cytometry with Trypan Blue quench. The format is cell-based, human. Particulars: endogenous and overexpressing cells together. The method, then: The receptor internalization assay was adapted from a previously published method for peptides[61],[63]. Briefly, HEK293-hFAP cells were sub-cultured into 6-well plates and allowed to adhere for 12–16 h. After washing cells with media, 100 nM of FAPI-AF488 in media was added to each well. Cells were incubated at 37 °C in the continuous presence of FAPI-AF488 and allowed to internalize. At each time point, plates were chilled, wells washed twice with PBS with 0.1% BSA, and cells lifted following Accutase incubation. Lastly, cells were resuspended in PBS or a dilution of 0.4% Trypan Blue before being analyzed via flow cytometry to differentiate between internal and surface fluorescence. The surface fluorescence was determined as (unquenched MFU – quenched MFU)/ɛ, where ɛ is the quenching efficiency determined by comparing the quenched and unquenched signals of cells that had been labeled briefly on ice to prevent internalization. The internal fluorescence was then calculated as total MFU – surface MFU. Non-specific uptake of small molecules was measured using cells where FAPI-AF488 was competed out with 100-fold excess concentration of the unlabeled FAPI. The corrected internal MFU values were plotted against the surface fluorescence integral; the slope of the linear curve is the internalization rate ke[64]. The same procedure was followed for the endogenous RAFLS cells.

Molecules are shown by their SMILES. Where “and” joins values, the source holds several entries; their conditions need not be identical. Equal entries are not always repeated.

These results are taken from paper PMC12118671, “Increased imaging ligand hydrophilicity and improved pharmacokinetic properties provides enhanced in vivo targeting of fibroblast activation protein” (npj Imaging, 2024).

Take `N#C[C@@H]1CC(F)(F)CN1C(=O)CNC(=O)c1ccnc2ccc(OCCCN3CCN(C(=O)CN4CCN(CC(=O)O)CCN(CC(=O)O)CCN(CC(=O)O)CC4)CC3)cc12` [FAPI-04]: the concentration for a half-maximal effect (EC50) in the data set with FAP [1] is 6.5 nM.

With `CC1(C)C(/C=C/C2=C(Oc3ccc(S(=O)(=O)O)cc3)C(=C/C=C3/N(CCCCS(=O)(=O)O)c4ccc(S(=O)(=O)O)cc4C3(C)C)/CCC2)=[N+](CCCCCC(=O)N2CCN(CCCOc3ccc4nccc(C(=O)NCC(=O)N5CC(F)(F)C[C@H]5C#N)c4c3)CC2)c2ccc(S(=O)(=O)O)cc21.O=C([O-])C(F)(F)F` [FAPI-800CW], on FAP [2] (healthy mice, 5 h, 1 nmol IV, no block), the “mean fluorescence intensity in healthy paws” value was found to be 0.026 ± 0.007. Besides, in data set [3], the AUC(0-inf) is 0.525 ± 0.025 µM·h, the C0 is 1250 ± 52 nM, the clearance is 0.0638 mL/min and the half-life is 60 ± 6 min. Moreover, in data set [3], the Vd came to 0.0039 ± 0.0002 L and the “clearance category (Fig. 1)” value is given as “Moderate clearance”. Besides, the Kd in data set [4] was 8 nM.

`N#CC1CC(F)(F)CN1C(=O)CNC(=O)c1ccnc2ccc(OCCCN3CCN(C(=O)C(N)CCC(=O)NCCOCCOCC(=O)NCc4ccc(S(=O)(=O)NC(=O)c5ccc(-c6ccc(C(F)(F)F)cc6)cc5)cc4)CC3)cc12` (stereo not shown) [FAPI-ALB]: the “% Protein Bound ± SD” value in data set [5] was 98.9 ± 0.2%. Moreover, the “mean fluorescence intensity of FAPI-ALB-800CW in inflamed paws when blocked by this compound” value at FAP [2] (CIA mice, 24 h, 1 nmol IV probe, blocker co-administered at 50-fold molar excess) amounted to 0.07 ± 0.01. In data set [3], the AUC(0-inf) was 0.088 ± 0.018 µM·h, the C0 is 189 ± 52 nM, the clearance was 0.42 mL/min and the half-life is 54 min. In data set [3], the Vd worked out at 0.0145 ± 0.0084 L and the “clearance category (Fig. 1)” value is given as “Moderate clearance”. Moreover, in data set [4], the Kd was 3.6 nM.

`N#C[C@@H]1CC(F)(F)CN1C(=O)CNC(=O)c1ccnc2ccc(OCCCN3CCNCC3)cc12` [FAPI]: the “% Protein Bound ± SD” value in data set [5] is 44.7% and 44.7 ± 3.1%. Moreover, the “effect of co-dosed molar excess blocker on FAPI-800CW uptake in inflamed paws” value at FAP [2] (CIA mice, 5 h, 50-fold molar excess) is given as “did not provide a similar reduction”. Moreover, in data set [3], the AUC(0-inf) was 0.014 ± 0.004 µM·h, the C0 was 50 ± 7 nM, the clearance was 3.9 mL/min and the half-life is 30 ± 6 min. Besides, in data set [3], the distribution volume (Vd) came out at 0.0627 ± 0.0184 L and the “clearance category (Fig. 1)” value is given as “Fast clearance”. Also, the Kd in data set [4] was 6 nM. Further, the “internalization half-life (t1/2)” value with HEK293-hFAP cells was in the range of 4 to 8 h.
